Assay results published in patent publication US10689377B2 (Mirati Therapeutics, Inc., priority 2017, dated 2020).

Target: KRas G12C (Homo sapiens, UniProt P01116, G12C)
Experiment: Cellular inhibition of KRas G12C measured by Phospho-ERK in NCI-H358 cells
Type: cell-based
Conditions: pERK(Thr202/Tyr204) normalized with GAPDH, NCI-H358 cells, 3 hours; read-out: IC50
Summary of the method: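 NCI-H358 cells were allowed to attach for 8-12 hours, then exposed to compounds for 3 hours at 0.5% DMSO final. After formaldehyde fixation and methanol permeabilization, phospho-ERK (Thr202/Tyr204) was detected by in-cell immunofluorescence and normalized to GAPDH; IC50 came from a 4-parameter fit of percent-of-DMSO values.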

Sequence of KRas G12C (P01116 1-188 isoform P01116-2 G12C): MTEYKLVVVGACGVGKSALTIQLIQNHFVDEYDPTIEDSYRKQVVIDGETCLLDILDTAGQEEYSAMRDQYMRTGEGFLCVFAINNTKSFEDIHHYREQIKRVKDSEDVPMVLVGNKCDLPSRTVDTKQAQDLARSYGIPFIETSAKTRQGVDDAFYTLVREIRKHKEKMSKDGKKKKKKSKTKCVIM

| Structure (SMILES) | IC50 [µM] |
| --- | --- |
| C=CC(=O)N1CCN(c2nc(OC[C@@H]3CCCN3C)nc3c2CCN(c2cccc4ccccc24)C3)C[C@@H]1CCOC [Example 433, 1-((S)-2-(2-methoxyethyl)-4-(2-(((S)-1-methylpyrrolidin-2-yl)methoxy)-7-(naphthalen-1-yl)-5,6,7,8-tetrahydropyrido[3,4-d]pyrimidin-4-yl)piperazin-1-yl)prop-2-en-1-one] | > 1 |
| C=CC(=O)N1CCN(c2nc(OC[C@@H]3CCCN3C)nc3c2CCN(c2cccc4ccccc24)C3)C(CC#N)C1 (stereo partly drawn) [Example 439, 2-(4-acryloyl-1-(2-(((S)-1-methylpyrrolidin-2-yl)methoxy)-7-(naphthalen-1-yl)-5,6,7,8-tetrahydropyrido[3,4-d]pyrimidin-4-yl)piperazin-2-yl)acetonitrile] | > 1 |
| C=CC(=O)N1CCN(c2nc(OC[C@H]3CCCN3C)nc3c2CCN(c2cccc4ccccc24)C3)C[C@@H]1CC#N [Example 441, 2-((S)-1-acryloyl-4-(2-(((R)-1-methylpyrrolidin-2-yl)methoxy)-7-(naphthalen-1-yl)-5,6,7,8-tetrahydropyrido[3,4-d]pyrimidin-4-yl)piperazin-2-yl)acetonitrile] | 0.0001 to 1 |
| C=CC(=O)N1CCN(c2nc(OC[C@H]3COCCN3C)nc3c2CCN(c2cccc4ccccc24)C3)CC1CC#N (stereo partly drawn) [Example 446, 2-(1-Acryloyl-4-(2-(((R)-4-methylmorpholin-3-yl)methoxy)-7-(naphthalen-1-yl)-5,6,7,8-tetrahydropyrido[3,4-d]pyrimidin-4-yl)piperazin-2-yl)acetonitrile] | > 1 |
| C=CC(=O)N1CCN(c2nc(OC[C@@H]3CC(F)(F)CN3C)nc3c2CCN(c2cccc4ccccc24)C3)C[C@@H]1CC#N [Example 447, 2-((S)-1-Acryloyl-4-(2-(((S)-4,4-difluoro-1-methylpyrrolidin-2-yl)methoxy)-7-(naphthalen-1-yl)-5,6,7,8-tetrahydropyrido[3,4-d]pyrimidin-4-yl)piperazin-2-yl)acetonitrile] | 0.0001 to 1 |
| C=CC(=O)N1CCN(c2nc(OC[C@H]3CN(C)C4(CC4)CO3)nc3c2CCN(c2cccc4ccccc24)C3)C[C@@H]1CC#N [Example 448, 2-((S)-1-Acryloyl-4-(2-(((R)-4-methyl-7-oxa-4-azaspiro[2.5]octan-6-yl)methoxy)-7-(naphthalen-1-yl)-5,6,7,8-tetrahydropyrido[3,4-d]pyrimidin-4-yl)piperazin-2-yl)acetonitrile] | 0.0001 to 1 |
| C=CC(=O)N1CCN(c2nc(OC[C@@H]3CCCN3C)nc3c2CCN(c2ccccc2C(F)F)C3)CC1CC#N (stereo partly shown) [Example 449] | 0.0001 to 1 |
| C=CC(=O)N1CCN(c2nc(OC[C@H]3CN(C)CCO3)nc3c2CCN(c2cccc4ccccc24)C3)C[C@@H]1CC#N [Example 450, 2-((S)-1-Acryloyl-4-(2-(((R)-4-methylmorpholin-2-yl)methoxy)-7-(naphthalen-1-yl)-5,6,7,8-tetrahydropyrido[3,4-d]pyrimidin-4-yl)piperazin-2-yl)acetonitrile] | 0.0001 to 1 |
| C=CC(=O)N1CCN(c2nc(OC[C@H]3CN(C)[C@H](C)CO3)nc3c2CCN(c2cccc4ccccc24)C3)C[C@@H]1CC#N [Example 451, 2-((S)-1-Acryloyl-4-(2-(((2R,5R)-4,5-dimethylmorpholin-2-yl)methoxy)-7-(naphthalen-1-yl)-5,6,7,8-tetrahydropyrido[3,4-d]pyrimidin-4-yl)piperazin-2-yl)acetonitrile] | 0.0001 to 1 |
| C=CC(=O)N1CCN(c2nc(OC[C@H]3CN(C)C(C)(C)CO3)nc3c2CCN(c2cccc4ccccc24)C3)C[C@@H]1CC#N [Example 452, 2-((S)-1-Acryloyl-4-(7-(naphthalen-1-yl)-2-(((R)-4,5,5-trimethylmorpholin-2-yl)methoxy)-5,6,7,8-tetrahydropyrido[3,4-d]pyrimidin-4-yl)piperazin-2-yl)acetonitrile] | 0.0001 to 1 |
| C=CC(=O)N1CCN(c2nc(OC[C@@H]3CCCN3C)nc3c2CCN(c2c(C)c(C)cc4[nH]ncc24)C3)CC1 [Example 453, 1-[4-[7-(5,6-dimethyl-1H-indazol-4-yl)-2-[[(2S)-1-methylpyrrolidin-2-yl]methoxy]-6,8-dihydro-5H-pyrido[3,4-d]pyrimidin-4-yl]piperazin-1-yl]prop-2-en-1-one] | 0.0001 to 1 |
| C=CC(=O)N1CCN(c2nc(OCCN3CCC(F)(F)CC3)nc3c2CCN(c2cccc4cccc(Cl)c24)C3)C[C@@H]1CC#N [Example 454] | 0.0001 to 1 |
| C=CC(=O)N1CCN(c2nc(OCCN3CCCC(F)(F)C3)nc3c2CCN(c2cccc4cccc(Cl)c24)C3)C[C@@H]1CC#N [Example 455, 2-[(2S)-4-[7-(8-chloro-1-naphthyl)-2-[2-(3,3-difluoro-1-piperidyl)ethoxy]-6,8-dihydro-5H-pyrido[3,4-d]pyrimidin-4-yl]-1-prop-2-enoyl-piperazin-2-yl]acetonitrile] | 0.0001 to 1 |
| C=CC(=O)N1CCN(c2nc(OC[C@@H]3CCCN3C)nc3c2CCN(c2c(C)c(C)cc4[nH]ccc24)C3)CC1 [Example 457, 1-[4-[7-(5,6-dimethyl-1H-indol-4-yl)-2-[[(2S)-1-methylpyrrolidin-2-yl]methoxy]-6,8-dihydro-5H-pyrido[3,4-d]pyrimidin-4-yl]piperazin-1-yl]prop-2-en-1-one] | 0.0001 to 1 |
| CC#CC(=O)N1CCN(c2nc(OC[C@@H]3CCCN3C)nc3c2CCN(c2cccc4cccc(C)c24)C3)C[C@@H]1CC#N [Example 458, 2-((S)-1-(but-2-ynoyl)-4-(7-(8-methylnaphthalen-1-yl)-2-(((S)-1-methylpyrrolidin-2-yl)methoxy)-5,6,7,8-tetrahydropyrido[3,4-d]pyrimidin-4-yl)piperazin-2-yl)acetonitrile] | 0.0001 to 1 |
| Cc1cccc2cccc(N3CCc4c(nc(OC[C@@H]5CCCN5C)nc4N4CCN(C(=O)/C=C/CN(C)C)[C@@H](CC#N)C4)C3)c12 [Example 459, 2-((S)-1-((E)-4-(dimethylamino)but-2-enoyl)-4-(7-(8-methylnaphthalen-1-yl)-2-(((S)-1-methylpyrrolidin-2-yl)methoxy)-5,6,7,8-tetrahydropyrido[3,4-d]pyrimidin-4-yl)piperazin-2-yl)acetonitrile] | 0.0001 to 1 |

Further lines, results first:

| IC50 [µM] | Structure (SMILES) |
| --- | --- |
| 0.0001 to 1 | C=CC(=O)N1CCN(c2nc(OC[C@@H]3CCCN3C)nc3c2CCN(c2cccc4cccc(C(F)(F)F)c24)C3)C[C@@H]1CC#N [Example 434, 2-((S)-1-acryloyl-4-(2-(((S)-1-methylpyrrolidin-2-yl)methoxy)-7-(8-(trifluoromethyl)naphthalen-1-yl)-5,6,7,8-tetrahydropyrido[3,4-d]pyrimidin-4-yl)piperazin-2-yl)acetonitrile] |
| 0.0001 to 1 | C=CC(=O)N1CCN(c2nc(OC[C@@H]3CCCN3C)nc3c2CCN(c2cccc4ccn(C)c24)C3)C[C@@H]1CC#N [Example 436, 2-((S)-1-acryloyl-4-(7-(1-methyl-1H-indol-7-yl)-2-(((S)-1-methylpyrrolidin-2-yl)methoxy)-5,6,7,8-tetrahydropyrido[3,4-d]pyrimidin-4-yl)piperazin-2-yl)acetonitrile] |
| 0.0001 to 1 | C=CC(=O)N1CCN(c2nc(OC[C@@H]3C[C@@H](F)CN3C)nc3c2CCN(c2cccc(C)c2C)C3)C[C@@H]1CC#N [Example 437, 2-((S)-1-acryloyl-4-(7-(2,3-dimethylphenyl)-2-(((2S,4R)-4-fluoro-1-methylpyrrolidin-2-yl)methoxy)-5,6,7,8-tetrahydropyrido[3,4-d]pyrimidin-4-yl)piperazin-2-yl)acetonitrile] |
| 0.0001 to 1 | Cc1cccc(N2CCc3c(nc(OC[C@@H]4C[C@@H](F)CN4C)nc3N3CCN(C(=O)/C=C/CN(C)C)[C@@H](CC#N)C3)C2)c1C [Example 438, 2-((S)-1-((E)-4-(dimethylamino)but-2-enoyl)-4-(7-(2,3-dimethylphenyl)-2-(((2S,4R)-4-fluoro-1-methylpyrrolidin-2-yl)methoxy)-5,6,7,8-tetrahydropyrido[3,4-d]pyrimidin-4-yl)piperazin-2-yl)acetonitrile] |
| 0.0001 to 1 | C=CC(=O)N1CCN(c2nc(OC[C@@H]3[C@H](F)CCN3C)nc3c2CCN(c2cccc4ccccc24)C3)C[C@@H]1CC#N [Example 440, 2-((S)-1-acryloyl-4-(2-(((2R,3R)-3-fluoro-1-methylpyrrolidin-2-yl)methoxy)-7-(naphthalen-1-yl)-5,6,7,8-tetrahydropyrido[3,4-d]pyrimidin-4-yl)piperazin-2-yl)acetonitrile] |
| 0.0001 to 1 | C=CC(=O)N1CCN(c2nc(OC[C@@H]3CCCN3C)nc3c2CCN(c2cccc4cccn24)C3)C[C@@H]1CC#N [Example 442, 2-((S)-1-acryloyl-4-(7-(indolizin-5-yl)-2-(((S)-1-methylpyrrolidin-2-yl)methoxy)-5,6,7,8-tetrahydropyrido[3,4-d]pyrimidin-4-yl)piperazin-2-yl)acetonitrile] |
| 0.0001 to 1 | C=CC(=O)N1CCN(c2nc(OC[C@H]3CN(C)CCO3)nc3c2CCN(c2cccc4ccccc24)C3)CC1CC#N (stereo partly drawn) [Example 443, 2-(1-Acryloyl-4-(2-(((R)-4-methylmorpholin-2-yl)methoxy)-7-(naphthalen-1-yl)-5,6,7,8-tetrahydropyrido[3,4-d]pyrimidin-4-yl)piperazin-2-yl)acetonitrile] |
| 0.0001 to 1 | C=CC(=O)N1CCN(c2nc(OC[C@@H]3CN(C)CCO3)nc3c2CCN(c2cccc4ccccc24)C3)CC1CC#N (stereo partly drawn) [Example 444, 2-(1-acryloyl-4-(2-(((S)-4-methylmorpholin-2-yl)methoxy)-7-(naphthalen-1-yl)-5,6,7,8-tetrahydropyrido[3,4-d]pyrimidin-4-yl)piperazin-2-yl)acetonitrile] |
| 0.0001 to 1 | C=CC(=O)N1CCN(c2nc(OC[C@@H]3COCCN3C)nc3c2CCN(c2cccc4ccccc24)C3)CC1CC#N (stereo partly drawn) [Example 445, 2-(1-Acryloyl-4-(2-(((S)-4-methylmorpholin-3-yl)methoxy)-7-(naphthalen-1-yl)-5,6,7,8-tetrahydropyrido[3,4-d]pyrimidin-4-yl)piperazin-2-yl)acetonitrile] |
